Assay results published in patent US8273780B2, “Polycyclic antagonists of lysophosphatidic acid receptors” (Amira Pharmaceuticals, Inc., priority 2009, dated 2012).

Experiments:
Assay type in all cases: cell-based
[1] = tested on: human A2058 melanoma cells; experiment: LPA1 chemotaxis assay; conditions: 100 nM LPA, read-out: inhibition of LPA-driven chemotaxis IC50
Description: Chemotaxis of the A2058 human melanoma cells was measured using the Neuroprobe ChemoTx® System plates (8 μM pore size, 5.7 mm diameter sites). The filter sites were coated with 0.001% fibronectin (Sigma) in 20 mM Hepes, pH 7.4 and allowed to dry. A2058 cells were serum-starved for 24 hours, then harvested with Cell Stripper and resuspended in DMEM containing 0.1% fatty-acid-free bovine serum albumin (BSA) to a concentration of 1×10^6/ml. Cells were mixed with an equal volume of test compound (2×) in DMEM containing 0.1% fatty-acid-free BSA and incubated at 37° C. for 15 minutes. LPA (100 nM in DMEM containing 0.1% fatty-acid-free BSA) or vehicle was added to each well of the lower chamber and 50 μl of the cell suspension/test compound mix was applied to the upper portion of the ChemoTx plate. Plates were incubated at 37° C. for three hours and then the cells removed from the upper portion by rinsing with PBS and scraping. The filter was dried then stained with HEMA 3 Staining System (Fisher Scientific). The absorbance of the filter was read at 590 nm and IC50s were determined using Symyx Assay Explorer.

[2] = molecular target: T1, Human LPA1 (Homo sapiens, UniProt Q92633); experiment: LPA1 calcium flux assay; conditions: CHO cells expressing human LPA1, 10 nM LPA; read-out: HLPA1 Ca Flux IC50
T1 construct: the full-length cDNA for human LPA1 was obtained by PCR of the reverse transcription reaction; expressed in transfected cells
Description: A 1.1 kb cDNA encoding the human LPA1 receptor was cloned from human lung. Human lung RNA (Clontech Laboratories, Inc. USA) was reverse transcribed using the RETROscript kit (Ambion, Inc.) and the full-length cDNA for human LPA1 was obtained by PCR of the reverse transcription reaction. The nucleotide sequence of the cloned human LPA1 was determined by sequencing and confirmed to be identical to the published human LPA1 sequence (An et al. Biochem. Biophys. Res. Commun. 231:619 (1997). The cDNA was cloned into the pcDNA5/FRT expression plasmid and transfected in CHO cells using lipofectamine 2000 (Invitrogen Corp., USA). Clones stably expressing human LPA1 were selected using hygromycin and identified as cells that show Ca-influx in response to LPA.
(§1) Human LPA1 or LPA3 expressing CHO cells are seeded at 20,000-45,000 cells per well in a 96-well poly-D-lysine coated plate one or two days before the assay. Prior to the assay, the cells are washed once with PBS and then cultured in serum-free media overnight. On the day of the assay, a calcium indicator dye (Calcium 4, Molecular Devices) in assay buffer (HBSS with Ca^2+and Mg^2+ and containing 20 mM Hepes and 0.3% fatty-acid free human serum albumin) is added to each well and incubation continued for 1 hour at 37° C. 10 μl of test compounds in 2.5% DMSO are added to the cells and incubation continued at room temperature for 30 minutes. Cells are the stimulated by the addition of 10 nM LPA and intracellular Ca^2+ measured using the Flexstation 3 (Molecular Devices). IC50s are determined using Graphpad prism analysis of drug titration curves.

[3] = molecular target: T2, Human LPA3 (Homo sapiens, UniProt Q9UBY5); experiment: LPA3 calcium flux assay; conditions: CHO cells expressing human LPA3, 10 nM LPA; read-out: HLPA3 Ca Flux IC50
T2 construct: The full-length cDNA fragment for human LPA3 was obtained by PCR from the vector; expressed in transfected cells; cDNA from the Missouri S&T cDNA Resource Center
T2 sequence (Q9UBY5 1-353): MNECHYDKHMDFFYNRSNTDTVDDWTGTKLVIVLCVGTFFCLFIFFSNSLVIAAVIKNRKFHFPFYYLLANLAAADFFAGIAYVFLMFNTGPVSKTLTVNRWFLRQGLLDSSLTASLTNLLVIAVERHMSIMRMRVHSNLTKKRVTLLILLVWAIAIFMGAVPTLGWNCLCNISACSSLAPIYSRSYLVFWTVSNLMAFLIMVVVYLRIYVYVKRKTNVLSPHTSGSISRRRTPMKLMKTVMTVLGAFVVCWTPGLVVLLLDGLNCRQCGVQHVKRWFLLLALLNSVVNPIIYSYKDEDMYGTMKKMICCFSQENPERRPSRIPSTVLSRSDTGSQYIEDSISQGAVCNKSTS
Description: A vector containing the human LPA3 receptor cDNA was obtained from the Missouri S&T cDNA Resource Center (www.cdna.org). The full-length cDNA fragment for human LPA3 was obtained by PCR from the vector. The nucleotide sequence of the cloned human LPA3 was determined by sequencing and confirmed to be identical to the published human LPA3 sequence (NCBI accession number NM_012152). The cDNA was cloned into the pcDNA5/FRT expression plasmid and transfected in CHO cells using lipofectamine 2000 (Invitrogen Corp., USA). Clones stably expressing human LPA3 were selected using hygromycin and identified as cells that show Ca-influx in response to LPA.
as §1

T1 sequence (Q92633 whole entry): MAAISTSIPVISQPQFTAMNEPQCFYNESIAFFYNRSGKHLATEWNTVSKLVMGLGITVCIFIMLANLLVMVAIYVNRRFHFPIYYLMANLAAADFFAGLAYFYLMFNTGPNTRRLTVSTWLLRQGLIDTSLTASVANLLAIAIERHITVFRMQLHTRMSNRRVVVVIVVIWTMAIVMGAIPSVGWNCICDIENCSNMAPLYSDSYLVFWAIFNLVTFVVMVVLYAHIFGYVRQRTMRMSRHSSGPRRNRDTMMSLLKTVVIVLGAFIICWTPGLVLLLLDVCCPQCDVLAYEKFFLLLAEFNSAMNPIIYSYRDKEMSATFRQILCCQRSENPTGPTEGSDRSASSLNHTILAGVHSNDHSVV

| Structure (SMILES) | IC50 [1] | IC50 [2] | IC50 [3] |
| --- | --- | --- | --- |
| Cc1noc(-c2ccc(-c3ccc(C4(C(=O)O)CC4)cc3)cc2)c1NC(=O)O[C@H](C)c1ccccc1Cl [Compound 8, 1-(4′-{4-[(R)-1-(2-Chloro-phenyl)-ethoxycarbonylamino]-3-methyl-isoxazol-5-yl}-biphenyl-4-yl)-cyclopropanecarboxylic acid] | < 100 nM | < 300 nM | 300 to 1000 nM |
| Cc1ccccc1[C@@H](C)OC(=O)Nc1c(C)noc1-c1ccc(-c2ccc(C3(C(=O)O)CC3)cc2)cc1 [Compound 3, 1-{4′-[3-Methyl-4-((R)-1-o-tolyl-ethoxycarbonylamino)-isoxazol-5-yl]-biphenyl-4-yl}-cyclopropanecarboxylic acid] | – | < 300 nM | 300 to 1000 nM |
| Cc1noc(-c2ccc(-c3ccc(C4(C(=O)O)CC4)cc3)cc2)c1NC(=O)O[C@H](C)c1ccccc1C(F)(F)F [Compound 9, 1-(4′-{3-Methyl-4-[(R)-1-(2-trifluoromethyl-phenyl)-ethoxycarbonylamino]-isoxazol-5-yl}-biphenyl-4-yl)-cyclopropanecarboxylic acid] | – | < 300 nM | 1000 to 10000 nM |
| Cc1noc(-c2ccc(-c3ccc(C4(C(=O)O)CC4)cc3)cc2)c1NC(=O)OC(C)c1ccccc1 (racemic) [Compound 34, 1-{4′-[3-Methyl-4-(1-phenyl-ethoxycarbonylamino)-isoxazol-5-yl]-biphenyl-4-yl}-cyclopropanecarboxylic acid] | – | < 300 nM | 1000 to 10000 nM |
| Cc1noc(-c2ccc(-c3ccc(C4(C(=O)O)CC4)cc3)cc2)c1NC(=O)OC(C)C1CCCCC1 (stereo not drawn) [Compound 2, 1-{4′-[4-(1-Cyclohexyl-ethoxycarbonylamino)-3-methyl-isoxazol-5-yl]-biphenyl-4-yl}-cyclopropanecarboxylic acid] | – | < 300 nM | 1000 to 10000 nM |
| Cc1noc(-c2ccc(-c3ccc(C4(C(=O)O)CC4)cc3)cc2)c1NC(=O)OC(C)c1cccc(Cl)c1 (stereo not drawn) [Compound 26, 1-(4′-{4-[1-(3-Chloro-phenyl)-ethoxycarbonylamino]-3-methyl-isoxazol-5-yl}-biphenyl-4-yl)-cyclopropanecarboxylic acid] | – | < 300 nM | 300 to 1000 nM |
| Cc1noc(-c2ccc(-c3ccc(C4(C(=O)O)CC4)cc3)cc2)c1NC(=O)O[C@H](C)c1ccc(C#N)cc1 [Compound 18, 1-(4′-{4-[(R)-1-(4-Cyano-phenyl)-ethoxycarbonylamino]-3-methyl-isoxazol-5-yl}-biphenyl-4-yl)-cyclopropanecarboxylic acid] | – | < 300 nM | 1000 to 10000 nM |
| COc1cc(-c2ccc(C3(C(=O)O)CC3)cc2)ccc1-c1onc(C)c1NC(=O)O[C@H](C)c1cccc(C(F)(F)F)c1 [Compound 31, 1-(3′-Methoxy-4′-{3-methyl-4-[(R)-1-(3-trifluoromethyl-phenyl)-ethoxycarbonylamino]-isoxazol-5-yl}-biphenyl-4-yl)-cyclopropanecarboxylic acid] | – | < 300 nM | < 300 nM |
| Cc1noc(-c2ccc(-c3ccc(C4(C(=O)O)CC4)cc3)cc2)c1NC(=O)O[C@H](C)C1CC1 (single isomer, unassigned) [Compound 6] | – | < 300 nM | > 10000 nM |
| Cc1noc(-c2ccc(-c3ccc(C4(C(=O)O)CC4)cc3)cc2)c1NC(=O)OC(C)c1cccc(O)c1 (stereo not drawn) [Compound 28, 1-(4′-{4-[1-(3-Hydroxy-phenyl)-ethoxycarbonylamino]-3-methyl-isoxazol-5-yl}-biphenyl-4-yl)-cyclopropanecarboxylic acid] | – | < 300 nM | > 10000 nM |
| Cc1noc(-c2ccc(-c3ccc(C4(C(=O)O)CCC4)cc3)cc2)c1NC(=O)O[C@H](C)c1ccccc1 [Compound 10, 1-{4′-[3-Methyl-4-((R)-1-phenyl-ethoxycarbonylamino)-isoxazol-5-yl]-biphenyl-4-yl}-cyclobutanecarboxylic acid] | – | < 300 nM | 1000 to 10000 nM |
| Cc1noc(-c2ccc(-c3ccc(C4(C(=O)O)CC4)cc3)cc2)c1NC(=O)OCC1CC1 [Compound 7, 1-[4′-(4-Cyclopropylmethoxycarbonylamino-3-methyl-isoxazol-5-yl)-biphenyl-4-yl]-cyclopropanecarboxylic acid] | – | < 300 nM | > 10000 nM |
| COc1ccc([C@@H](C)OC(=O)Nc2c(C)noc2-c2ccc(-c3ccc(C4(C(=O)O)CC4)cc3)cc2)cc1 [Compound 24, 1-(4′-{4-[(R)-1-(4-Methoxy-phenyl)-ethoxycarbonylamino]-3-methyl-isoxazol-5-yl}-biphenyl-4-yl)-cyclopropanecarboxylic acid] | – | < 300 nM | > 10000 nM |
| Cc1noc(-c2ccc(-c3ccc(C4(C(=O)O)CC4)cc3)cc2)c1NC(=O)OC(C)c1cccc(Br)c1 (stereo not drawn) [Compound 25, 1-(4′-{4-[1-(3-Bromo-phenyl)-ethoxycarbonylamino]-3-methyl-isoxazol-5-yl}-biphenyl-4-yl)-cyclopropanecarboxylic acid] | – | < 300 nM | 300 to 1000 nM |
| Cc1noc(-c2ccc(-c3ccc(C4(C(=O)O)CC4)cc3)cc2)c1NC(=O)OC(C)c1cccc(C#N)c1 (stereo not drawn) [Compound 15, 1-(4′-{4-[1-(3-Cyano-phenyl)-ethoxycarbonylamino]-3-methyl-isoxazol-5-yl}-biphenyl-4-yl)-cyclopropanecarboxylic acid] | – | < 300 nM | 1000 to 10000 nM |
| Cc1noc(-c2ccc(-c3ccc(C4(C#N)CC4)cc3)cc2)c1NC(=O)O[C@H](C)c1ccccc1 [Compound 37, {5-[4′-(1-Cyano-cyclopropyl)-biphenyl-4-yl]-3-methyl-isoxazol-4-yl}-carbamic acid (R)-1-phenyl-ethyl ester] | – | 1000 to 10000 nM | > 10000 nM |
| Cc1noc(-c2ccc(-c3ccc(C4(C(=O)O)CC4)cc3)cc2)c1NC(=O)O[C@H](C)C1CCC1 [Compound 20, 1-{4′-[4-((R)-1-Cyclobutyl-ethoxycarbonylamino)-3-methyl-isoxazol-5-yl]-biphenyl-4-yl}-cyclopropanecarboxylic acid] | – | < 300 nM | 1000 to 10000 nM |
| C[C@@H](OC(=O)Nc1cnoc1-c1ccc(-c2ccc(C3(C(=O)O)CC3)cc2)cc1)c1ccccc1 [Compound 33, 1-{4′-[4-((R)-1-Phenyl-ethoxycarbonylamino)-isoxazol-5-yl]-biphenyl-4-yl}-cyclopropanecarboxylic acid] | – | < 300 nM | 1000 to 10000 nM |
| COc1cc(-c2ccc(C3(C(=O)NS(C)(=O)=O)CC3)cc2)ccc1-c1onc(C)c1NC(=O)O[C@H](C)c1cccc(C(F)(F)F)c1 [Compound 41, {5-[4′-(1-Methanesulfonylaminocarbonyl-cyclopropyl)-3-methoxy-biphenyl-4-yl]-3-methyl-isoxazol-4-yl}-carbamic acid (R)-1-(3-trifluoromethyl-phenyl)-ethyl ester] | – | < 300 nM | 300 to 1000 nM |
